Patent US20040171613A1, “Therapeutic agent for non-immediate type allergic diseases” (JAPAN TOBACCO INC., priority 2001, published 2004)

What was measured:
[1] = tested on: DNFB-induced allergic dermatitis; experiment: murine DNFB-induced allergic dermatitis model; type: in vivo, mouse
Description: The model is produced by repeating antigen sensitization and induction in mouse to induce contact dermatitis that involves increase of IgE antibody titer, i.e., inflammation similar to atopic dermatitis (J. Allergy Clin. Immunol., 100 (6Pt2), 39-44, December 1997).
Furthermore, by dilution, 0.1 mg/mL and 0.01 mg/mL suspensions were prepared. In addition, as positive controls, 0.5 mg/mL, 0.2 mg/mL and 0.1 mg/mL solutions of prednisolone (Sigma) were similarly prepared.
During the period from the next day of the third antigen application to the next day of the fifth antigen application, 10 mL/kg of the above-described test compound was administered once a day 15 times in total.
The difference of thickness was used as an index of swelling. FIGS. 1 and 2 show the results of the measurement at the fourth and fifth antigen applications, together with the results of the positive controls.
24 hours after the fifth antigen application, the spleen was harvested from the mouse exsanguinated under anesthesia with ether. The wet weight of the spleen was measured.

[2] = tested on: IgE-dependent allergic dermatitis; experiment: murine IgE-dependent allergic dermatitis (triphase ear swelling); type: in vivo, mouse; conditions: oral 10 mg/kg
Description: A model was produced by passive sensitization of a mouse with IgE and repeated antigen challenge to trigger triphase (early phase, late phase and very late phase) dermatitis (Pharmacology, 60(2), 97-104, February 2000). Relation of mast cells and T cells, as well as invasion of eosinophils in local inflammatory sites is confirmed in these reactions.
In addition, as positive controls, similarly to the test compound, 1 mg/mL ketotifen fumarate (Sigma) and 3 mg/mL pranlukast hydrate (extracted from Onon™ (Ono Pharmaceutical Co., Ltd.)) were prepared. Pranlukast hydrate is used as a leukotriene inhibitor for therapeutic agents for asthma and allergic rhinitis. Ketotifen fumarate is used as a chemical mediator release suppressor for asthma, allergic rhinitis, eczema, dermatitis, urticaria, dermal pruritis and allergic conjunctivitis.
During the period from the antigen application day to the start of the dosing of the test compound, in place of the test compound, only the solvent was orally administered at 10 mL/kg once a day.
FIGS. 4 to 6 show the results of each measurement.

[3] = tested on: rat mast cell line RBL-2H3; experiment: leukotriene production from rat mast cell line; type: cell-based; conditions: anti-DNP IgE sensitization, DNP-BSA stimulation; 0.1 to 10 μM
Description: Then, the resulting solutions were diluted with E-MEM (EAGLE-MEM; Nikken Biomedical Lab.) to prepare solutions of 100 to 1 μM (1% DMSO solution). To act the solutions on cells, they were further diluted to 10 μM to 0.1 μM (0.1% DMSO solution).
1 mM PIPES (Dojin Molecular Technologies, Inc.), […], 0.5 mM KCl, 0.06 mM MgCl2, 0.1 mM CaCl2, 0.55 mM glucose and 0.1% BSA (bovine serum albumin; Sigma) were prepared with purified water and then adjusted to pH 7.4 using NaOH.
1 mg/mL anti-DNP IgE (monoclonal murine anti-DNP IgE; Yamasa Corp.) was diluted to 1000 fold with the PIPES buffer to prepare a 1 μg/mL solution.
10 mg/mL DNP-BSA was diluted to a concentration of 10 μg/mL with the PIPES buffer.
Culture medium: E-MEM containing heat-inactivated 10% FCS (fetal calf serum; Morgate Biotech), 100 units/mL penicillin and 100 μg/mL streptomycin (in the form of penicillin/streptomycin; GIBCO).
After centrifuging and washing rat mast cell line RBL-2H3 (Human Science; 1×10^6cells/mL/tube) with the above-described culture medium, the cells were resuspended in the culture medium and cultured in a 75-cm^2 flask (Falcon 353136) for 3 days. […]
30 minutes after the antigen stimulation, 20 μL/well supernatant was recovered and the LTs amount was measured according to manufacturer's protocol of LTs EIA kit (Amersham Pharmacia).

[4] = tested on: 2-AG-E-induced ear swelling; experiment: effect of compound A on 2-AG-E-induced ear swelling; type: in vivo, mouse
Description: Therefore, 2-arachidonoylglycerol ether (2-AG-E), the stable form of an endogenous ligand candidate 2-arachidonoylglycerol, and a specific CB2 agonist HU-308 were examined whether they directly induce ear swelling and compared to the ear swelling induced by arachidonic acid (AA).
Synthetically produced 2-AG-E and HU-308 were prepared with acetone to 1 or 10% (w/v) and 10% (w/v), respectively, and AA (Sigma) was prepared with acetone to 1.25% (w/v), on needed basis. 10 μL each of these substances was applied on each side of the left ear.
One hour later, 10 μL each of 10% (w/v) 2-AG-E was applied on each side of the left ear.

[5] = tested on: IgE-dependent allergic dermatitis; conditions: mouse, in vivo, po
Description: Using a triphase dermatitis model that can be induced by antigen in mouse passively sensitizationed with IgE, the actions of CB2 inverse agonist and CB2 agonist were examined.
*Animal: 8 to 10 weeks-old Female BALB/c mouse (Japan SLC Inc.) was used.
Preparation of solvent: MC was dissolved in distilled water to prepare an aqueous 0.5% MC solution.
Anti-DNP IgE (antibody against DNP; Yamasa Corp.) was prepared to 15 μg/mL with physiological saline. 0.2 mL of the resulting solution was given through the caudal vein to the mouse.
Antigen preparation: 0.15% (w/v) of DNFB (2,4-dinitrofluorobenzene) was prepared in a mixed solution of acetone and olive oil (3:1, v/v) on needed basis.
Antigen application: 25 μl of the antigen solution was applied on each side of both of the ears 24 hours after the administration of the anti-DNP IgE.
From the next day of the antigen application to day 8 after the antigen application, 10 mL/kg test compound was orally administered once a day 9 times in total. On the day of antigen application, the test compound was administered one hour before the antigen application and the test compound was administered one hour before the measurement of the thickness of the ear on day 8 after the antigen application.
Before and 8 days after the antigen application, the thickness of the ear was measured with a dial thickness gauge (Mitutoyo Corp.). The difference between the value measured before the antigen application and at each time point was used as an index of swelling.
After the measurement of ear swelling, spleen and thymus were harvested to weigh their wet weights.

[6] = target: CB1 (Homo sapiens, UniProt P21554); conditions: from JP-A 2000-256323, Table 33; cited from earlier work
Sequence of CB1 (P21554 whole entry, species assumed): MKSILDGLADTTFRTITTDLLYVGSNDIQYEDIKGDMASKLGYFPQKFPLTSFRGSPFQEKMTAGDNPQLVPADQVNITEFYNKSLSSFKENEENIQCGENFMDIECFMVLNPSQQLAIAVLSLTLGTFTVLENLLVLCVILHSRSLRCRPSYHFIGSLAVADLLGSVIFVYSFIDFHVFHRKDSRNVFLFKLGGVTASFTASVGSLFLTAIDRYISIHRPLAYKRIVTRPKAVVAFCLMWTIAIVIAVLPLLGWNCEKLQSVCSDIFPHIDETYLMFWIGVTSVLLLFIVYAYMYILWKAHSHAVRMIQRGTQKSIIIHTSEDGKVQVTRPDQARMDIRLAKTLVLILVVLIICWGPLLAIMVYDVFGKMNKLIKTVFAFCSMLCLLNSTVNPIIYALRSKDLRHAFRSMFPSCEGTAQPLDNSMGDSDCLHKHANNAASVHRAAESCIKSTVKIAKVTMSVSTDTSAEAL

## CCCCCOc1c(OC)ccc2cc(C(=O)NCc3ccc4c(c3)OCO4)c(=O)[nH]c12 [Compound A, N-(benzo[1,3]dioxol-5-ylmethyl)-7-methoxy-2-oxo-8-pentyloxy-1,2-dihydroquinoline-3-carboxamide]
[1]; 24 hours after the fifth antigen application, oral dosing
  spleen wet weight: No decrease of spleen weight
[1]; BALB/c mouse, oral once a day from day after third antigen application, 24 hours after fourth and fifth antigen application
  ear swelling (increase of the thickness of the ear): significantly suppressed ear swelling
[2]; 24 hours after antigen application
  ear swelling, late phase: significantly suppressed ear swelling
[2]; 8 days after antigen application
  ear swelling, very late phase: significantly suppressed ear swelling
[2]; administration started after the induction of the late phase
  ear swelling, very late phase, delayed start of dosing: effect of compound A in the very late phase was observed
[2]; one hour after antigen application
  ear swelling, early phase: significantly suppressed ear swelling
[3]
  leukotriene production (C4/D4/E4): suppressive effect
[4]; oral 0.01, 0.1, 1, 10 mg/kg one hour before 2-AG-E, dose-dependent
  ear swelling induced by the application of 10% 2-AG-E (AUC day 0 to day 8): suppressed ear swelling
[4]; oral 1 or 10 mg/kg
  ear swelling induced by 10% 2-AG-E, significance: significant effect
[5]
  wet weight of the spleen: no apparent changes
  wet weight of the thymus: no apparent changes
[6]
  IC50: 3.44 µM
